Laboratory results: article PMC10818921, “Validation of Liquid Chromatography Coupled with Tandem Mass Spectrometry for the Determination of 12 Tyrosine Kinase Inhibitors (TKIs) and Their Application to Therapeutic Drug Monitoring in Adult and Pediatric Populations” (Pharmaceutics, 2023)
Read-outs that look alike come from different tables or passages of the source.

Key:
[1] = Stability of TKI methanolic solutions, 7 days at −20 °C; type: physicochemical; conditions: for bias, stability of TKI methanolic solutions: QCs made with 7-day-old methanolic solutions; for storage of methanolic working solutions: −20 °C for 7 days
Protocol: To evaluate TKI stability in methanolic solutions, the four QC levels were realized with seven-day-old solutions and were analyzed six times. The accuracy and precision of the samples have to be in conformity with less than 15% variation.

[2] = Therapeutic drug monitoring: steady-state residual plasma concentrations by LC-MS/MS; type: in vivo, human; conditions: for Concentration range CI 95% / IQR / Mean concentration / Median concentration: residual plasma concentration at steady state; for comparison of dose–weight-adjusted concentrations between adult and pediatric groups: Mann–Whitney test, p-value < 0.0001 where significant
Protocol: For each calibration sample, an adapted volume of working solution was added and evaporated. Then, 150 µL of IS methanolic solution was added to 50 µL of plasma sample (blank plasma for calibration sample or patient plasma) to precipitate proteins. After vortex mixing and 10 min of centrifugation, the supernatant was transferred into injection vials, and 10 µL was injected into the chromatographic system.
Chromatography was performed on a Dionex Ultimate 3000 Pump (ThermoFisher, les Ulis, France) using a Kinetex C18 Polar column (100 × 2.1 mm, 2.6 µm particle size) heated at 40 °C. The mobile phase A was made with 2 mM of ammonium formate in 0.1% formic acid in ultra-pure water and stored at +4 °C for a maximum of one week. […] The gradient was set as follows: 10 to 40% of B from 0 to 1 min, then 40 to 90% of B in 1 min, and keeping this for 2 min before resetting to 10% B in 1 min. An equilibration time of one minute at 10% mobile phase B at the end of the chromatographic run allowed the column to be equilibrated before the next analysis.
The compounds were detected using an Altis® triple quadrupole tandem mass spectrometer (ThermoFisher Scientific, Les Ulis, France) equipped with an electrospray ionization (ESI) source set in positive ionization mode with a potential of +3.5 kV. Nitrogen was used as cladding and auxiliary gas at a pressure of 30 and 10 arbitrary units (AU), respectively. The collision gas, argon, was used at a pressure of 1.5 mTorr. The temperature of the ion transfer capillary was set at 350 °C. Data were collected in multiple reaction monitoring mode (MRM) with two transitions (m/z) per compound. Xcalibur® (v 4.2.47) and LC Quan® (v 2.7.0) software (ThermoFisher Scientific) were used for data acquisition and processing.
The study was conducted in accordance with the Declaration of Helsinki and approved by the local ethics committee.
Populations treated with each TKI are described in Table 4.
Blood samples were collected in a steady state (i.e., a minimum of 2 weeks after the initiation of therapy or dose adjustment) just prior to dosing. The samples were collected in lithium heparin tubes without a separator and were immediately centrifuged, decanted, and frozen at −20 °C before LC-MS/MS analysis.
A Mann–Whitney […] was performed to compare dose–weight-adjusted concentrations between adult and pediatric groups. Results are illustrated in box-and-whiskers plots. GraphPad Prism v.8.3.0 Software (San Diego, CA, USA) was used to process and visualize data.

[3] = cited from earlier work
[4] = cited from earlier work; for Target Concentrations, Cmax / Target Concentrations, Cmin: adults
[5] = cited from earlier work; remark: listed apart in the source

Row | bias, stability of TKI methanolic solutions [1] | storage of methanolic working solutions [1] | Dose–weight-adjusted mean concentration ([2]; adults) | Dose–weight-adjusted median concentration ([2]; adults) | Concentration range CI 95% ([2]; adults) | IQR ([2]; adults) | Mean concentration ([2]; adults) | Median concentration ([2]; adults) | Dose–weight-adjusted mean concentration ([2]; children) | Dose–weight-adjusted median concentration ([2]; children) | Concentration range CI 95% ([2]; children) | IQR ([2]; children) | Mean concentration ([2]; children) | Median concentration ([2]; children) | Structure (SMILES) | Target Concentrations, Cmax [4] | comparison of dose–weight-adjusted concentrations between adult and pediatric groups [2] | Target Concentrations, Cmin [4] | further results
1 | ≥ 15% | must be prepared extemporaneously | 25.8 ng/mL/mg/kg | 21.7 ng/mL/mg/kg | [16–56] ng/mL | [11–47] ng/mL | 32 ng/mL | 25 ng/mL |  |  |  |  |  |  | C=CC(=O)Nc1cc(Nc2nccc(-c3c[nH]c4ccccc34)n2)c(OC)cc1N(C)CCN(C)C [AZ5104] |  |  |  | 
2 |  |  | 17.3 ng/mL/mg/kg | 16.7 ng/mL/mg/kg | [292–424] ng/mL | [302–408] ng/mL | 358 ng/mL | 346 ng/mL |  |  |  |  |  |  | CCc1cc2c(cc1N1CCC(N3CCOCC3)CC1)C(C)(C)c1[nH]c3cc(C#N)ccc3c1C2=O [Alectinib, alectinib] |  |  |  | 
3 |  |  | 48.8 ng/mL/mg/kg | 41.6 ng/mL/mg/kg | [51–64] ng/mL | [38–69] ng/mL | 57.4 ng/mL | 52 ng/mL | 17.5 ng/mL/mg/kg | 14.6 ng/mL/mg/kg | [37–204] ng/mL | [62–143] ng/mL | 120 ng/mL | 100 ng/mL | Cn1cnc2c(F)c(Nc3ccc(Br)cc3F)c(C(=O)NOCCO)cc21 [Binimetinib, binimetinib] | Cmax = 654 ng/mL | higher concentrations of binimetinib in adults |  | frozen stability in plasma [3]: at least 30 days
4 |  |  | 145.7 ng/mL/mg/kg | 138.1 ng/mL/mg/kg | [24–94] ng/mL | [46.5–83] ng/mL | 59.3 ng/mL | 70 ng/mL | 85.4 ng/mL/mg/kg | 62.6 ng/mL/mg/kg | [74–118] ng/mL | [34–114] ng/mL | 96.3 ng/mL | 64.3 ng/mL | O=C(c1ccc(F)c(F)c1Nc1ccc(I)cc1F)N1CC(O)([C@@H]2CCCCN2)C1 [Cobimetinib, cobimetinib] | Cmax = 270 ng/mL | not statistically different |  | stable in plasma ([3]; −40 °C): more than 20 weeks
5 | ≥ 15% | must be prepared extemporaneously |  |  |  |  |  |  |  |  |  |  |  |  | C[C@@H](Oc1cc(-c2cnn(C3CCNCC3)c2)cnc1N)c1c(Cl)ccc(F)c1Cl [Crizotinib, crizotinib] |  |  | Cmin ≥ 235 ng/mL | stability at −20 °C for 7 days ([1]; methanolic solutions, CQ3): not stable; stability in plasma [3]: minimum of one month
6 |  |  | 28.3 ng/mL/mg/kg | 14 ng/mL/mg/kg | [88–122] ng/mL | [29–114] ng/mL | 105.3 ng/mL | 53.5 ng/mL | 62.3 ng/mL/mg/kg | 19.1 ng/mL/mg/kg | [26–178] ng/mL | [15–131] ng/mL | 102.3 ng/mL | 18.4 ng/mL | CC(C)(C)c1nc(-c2cccc(NS(=O)(=O)c3c(F)cccc3F)c2F)c(-c2ccnc(N)n2)s1 [Dabrafenib, dabrafenib] |  | not statistically different | Cmin ≥ 15 ng/mL | adverse effects described [5]: Skin disorders (acneiform eruptions and rash); stable in plasma ([3]; −40 °C): more than 20 weeks
7 |  |  | 3.4 ng/mL/mg/kg | 2.6 ng/mL/mg/kg | [16–21] ng/mL | [10–22] ng/mL | 18.6 ng/mL | 15 ng/mL |  |  |  |  |  |  | COC(=O)N[C@@H](C)CNc1nccc(-c2cn(C(C)C)nc2-c2cc(Cl)cc(NS(C)(=O)=O)c2F)n1 [Encorafenib, encorafenib] | Cmax = 3100 ng/mL |  |  | frozen stability in plasma [3]: at least 30 days
8 |  |  |  |  |  |  |  |  |  |  |  |  |  |  | C[C@H]1Oc2cc(cnc2N)-c2c(nn(C)c2C#N)CN(C)C(=O)c2ccc(F)cc21 [Lorlatinib, lorlatinib] | Cmax = 575 ng/mL |  |  | stable in plasma ([3]; −30 °C): at least 2 months
9 | ≥ 15% | must be prepared extemporaneously | 196.7 ng/mL/mg/kg | 211.4 ng/mL/mg/kg | [122–320] ng/mL |  | 221 ng/mL | 207 ng/mL |  |  |  |  |  |  | C=CC(=O)Nc1cc(Nc2nccc(-c3cn(C)c4ccccc34)n2)c(OC)cc1N(C)CCN(C)C [Osimertinib, osimertinib] |  |  |  | stability in plasma [3]: minimum of one month; Target Concentrations, Cmin ([4]; 40 mg dosage): ≥ 90 ng/mL; Target Concentrations, Cmin ([4]; 80 mg dosage): ≥ 160 ng/mL
10 |  |  | 443.8 ng/mL/mg/kg | 386.3 ng/mL/mg/kg | [11–13] ng/mL | [8–14] ng/mL | 12.4 ng/mL | 11 ng/mL | 578.4 ng/mL/mg/kg | 538.5 ng/mL/mg/kg | [11–14] ng/mL | [6.5–17] ng/mL | 12.6 ng/mL | 9.7 ng/mL | CC(=O)Nc1cccc(-n2c(=O)n(C3CC3)c(=O)c3c(Nc4ccc(I)cc4F)n(C)c(=O)c(C)c32)c1 [Trametinib, trametinib] |  | significantly lower in the adult group than in the pediatric group | Cmin ≥ 10.6 ng/mL | toxicity reported ([5]; children treated for glioma): signs of cutaneous toxicity; adverse effects described [5]: Skin disorders (acneiform eruptions and rash); serum stability ([3]; −20 °C): 20 months; minimum effective concentrations [4]: 10 ng/mL
